{"source": "patent US20180008688A1", "about": "“METHOD AND COMPOSITIONS FOR ENHANCING IMMUNOTHERAPEUTIC TREATMENT OF A CANCER” (Augusta University Research Institute, Inc., priority 2016, published 2018)", "key": {"E.G7 tumors [1]": {"tested_on": "E.G7 tumors", "assay": "E.G7/oxaliplatin model in LysMcre/p53-KO hosts with or without nutlin-3a", "format": "in vivo, mouse", "conditions": "mice lacking myeloid p53; FIG. 8D", "excerpt": "To test whether the relevant target of nutlin in tumors was specifically the p53 expression in myeloid dendritic cells, the E.G7/oxaliplatin model in LysMcre/p53-KO hosts was used. If mice lacked the relevant p53 in tumor-associated myeloid cells, then LysMcre/p53-KO mice should lose all anti-tumor effect of nutlin. For these studies, mice received congenically-marked OT-I cells to monitor whether T cells were still rescued by IL-12 in tumors.\nMice with a nuclear-localizing Cre-recombinase knock-in replacing one copy of the Lyz2 gene (Clausen et al., (1999) Transgenic Res. 8: 265-277) (strain 004781, Jax) were crossed as heterozygotes with homozygous p53^flox/flox mice (Marino et al., (2000) Genes Dev. 14: 994-1004) (strain 008462, Jax).\n(§1) Tumor implantation was performed as described (Sharma et al., (2007) J. Clin. Invest. 117: 2570-2582). VO-OHpic was given at 10 mg/kg/day i.p., in 10% DMSO/PBS. Cyclophosphamide was given at 150 mg/kg i.p×1 dose; and oxaliplatin at 5 mg/kg i.p×1 dose. Nutlin-3a was administered daily at 10 mg/kg/day i.p. For checkpoint blockade, mice received anti-CTLA-4 plus a cocktail of antibodies against the PD-1 pathway. Vaccines and T cell adoptive transfer studies were performed as described (Sharma et al., (2015) Sci. Advances. 1: e1500845)."}, "OT-I T cells": {"tested_on": "OT-I T cells", "assay": "OT-I T cells activated with cognate antigen and different antigen-presenting cells, with nutlin", "format": "cell-based, mouse", "excerpt": "Under normal circumstances the signal to downregulate p53 is provided by engagement of the T cell antigen receptor (TCR) that activates MDM2 and targets p53 for degradation (Watanabe et al., (2014) Immunity 40: 681-691).\nTo test whether the effect of Ly6c^+CD103^+ dendritic cells was due to IL-12, OT-I T cells were activated using 3 different types of antigen-presenting cells (APCs).\nConsistent with this, when dendritic cells were sorted from TDLNs of IL-12-deficient mice (IL-12p40-KO), treated with the same immunotherapy regimen, these dendritic cells were unable to rescue T cells from nutlin. T cell proliferation tracked concordantly with p53 levels. In these experiments with dendritic cells from TDLNs, feeder populations were added to maintain functional activity."}, "p53": {"tested_on": "p53", "assay": "p53 expression in mononuclear cells of tumors after systemic nutlin-3a (FACS)", "format": "in vivo, mouse", "conditions": "FIG. 7", "method": "Antibody against the N-terminus of p53 (clone 1C12), used as in Watanabe et al., (2014) Immunity 40: 681-691, was from Cell Signaling Technology. Antibody against the C-terminus p53 (clone PAb122 (Gurney et al., (1980) J. Virol. 34: 752-763) was from Novus Biologicals. For both antibodies, staining was performed following permeablization with eBioscience fix-and-perm. Anti-phospho-p53(Ser15) (clone D4S1H) was from Cell Signaling Technology. For phospho-specific staining, cells were washed in PBS, fixed with 2% paraformaldehyde for 10 min at 37° C., pre-chilled for 1 min, then permeabilized by slow addition of ice-cold methanol to a final concentration of 90%. Cells were then incubated on ice for 30 min, washed with 1% FCS/PBS, blocked with the same solution for 10 min at room temperature, then for 1 h at room temperature and washed. Cells were acquired immediately after staining.\nVO-OHpic was given at 10 mg/kg/day i.p., in 10% DMSO/PBS. Cyclophosphamide was given at 150 mg/kg i.p×1 dose. Oxaliplatin was given at 5 mg/kg i.p×1 dose. Nutlin-3a was dissolved at 2 mg/ml in 10% DMSO in buffered saline and administered daily at 10 mg/kg/day i.p. The 10 mg/kg/day dose was at the lower end of the parenteral dosing range described for mice (Zhang et al., (2011) Drug Meta. Dispos. 39: 15-21). […]"}, "B16F10 tumors": {"tested_on": "B16F10 tumors", "assay": "Established B16F10 tumors treated with dual checkpoint blockade with or without nutlin-3a", "format": "in vivo, mouse", "method": "In vivo tumor studies: The B16F10 and E.G7 (EL4-OVA) cell lines were obtained from ATCC. B16-OVA (B16F10 transfected with full-length chicken ovalbumin) clone MO4 was according to Falo et al. ((1995) Nat. Med. 1: 649-653). B16F10 cells expressing EGFP protein (B16-GFP cells) were derived using lentiviral transfection. Tumor implantation was performed as described (Sharma et al., (2007) J. Clin. Invest. 117: 2570-2582), using 1×10^5 cells for B16F10 and 1×10^6 cells for other cell lines (large inocula were used to ensure rapid tumor engraftment and immune suppression). Tumors were implanted bilaterally in each mouse as a control for reproducible implantation technique; replicate tumor diameters in a single mouse were typically within ±15%. Tumor volume was calculated from orthogonal diameters using the formula V=L×W^2×π/6. Mice received approved euthanasia when tumors reached a size of 300 mm^2 (product of orthogonal diameters); death was never used a planned endpoint in any study.\nas §1, with “Vaccines and T cell adoptive transfer studies were performed as described (Sharma et al., (2015) Sci. Advances. 1: e1500845).” left out"}, "E.G7 tumors [2]": {"tested_on": "E.G7 tumors", "assay": "RIP-mOVA mice with E.G7 tumors treated with oxaliplatin with or without nutlin", "format": "in vivo", "conditions": "nutlin-3a added to oxaliplatin", "method": "A classical model of ICD was first tested in which EL4-OVA lymphoma tumors (clone E.G7) are treated with oxaliplatin chemotherapy (Ghiringhelli et al., (2009) Nat. Med. 15: 1170-1178). E.G7 bears the same model antigen as B16-OVA (described with the RIP-mOVA model, above), so it was possible to test the effects of nutlin plus oxaliplatin in the RIP-mOVA model."}, "[3]": {"conditions": "activation with cognate antigen"}}, "note": "“Also recorded” adds a separate entry of the source.", "data": [{"smiles": "COc1ccc(C2=NC(c3ccc(Cl)cc3)C(c3ccc(Cl)cc3)N2C(=O)N2CCNC(=O)C2)c(OC(C)C)c1", "note": "(single isomer, unassigned; (-)) [nutlin-3a, (−)-4-(4,5-Bis(4-chlorophenyl)-2-(2-isopropoxy-4-methoxyphenyl)-4,5-dihydro-1H-imidazole-1-carbonyl)piperazin-2-one]", "values": [{"measurement": "anti-tumor effect of nutlin-3a", "setting": "E.G7 tumors [1]", "value": "lost all anti-tumor effects; also recorded: lost all ability to enhance anti-tumor immunity"}, {"measurement": "down-regulation of p53 in OT-I T cells", "setting": "OT-I T cells; CD11c+Ly6c+ dendritic cells from TDLNs of VO-OHpic+CTX treated mice as APCs", "value": "lost all ability to prevent down-regulation of p53"}, {"measurement": "T cell proliferation", "setting": "OT-I T cells; [3]", "value": "prevented T cell proliferation"}, {"measurement": "total p53 in OT-I T cells", "setting": "OT-I T cells; [3]", "value": "marked increase"}, {"measurement": "down-regulation of p53 in OT-I T cells", "setting": "OT-I T cells; dendritic cells from normal LNs as APCs", "value": "completely prevented"}, {"measurement": "effect on p53 in remaining tumor cells (negative for CD11c/Ly6c/Gr 1)", "setting": "p53", "value": "little effect"}, {"measurement": "increase in p53 levels in CD11c+ cells and myeloid cells in tumors", "setting": "p53; systemic nutlin-3a, including Ly6c+CD11c^NEG myeloid precursors", "value": "2-3 fold"}, {"measurement": "Ly6C+/CD103+ dendritic cells in tumors", "setting": "B16F10 tumors; nutlin added to checkpoint blockade, after 2 weeks of treatment", "value": "maintained large numbers"}, {"measurement": "anti-tumor effect", "setting": "B16F10 tumors; nutlin-3a 10 mg/kg/day i.p. added to dual checkpoint blockade, FIG. 8A", "value": "significantly enhanced and prolonged the effect of treatment"}, {"measurement": "anti-tumor activity", "setting": "E.G7 tumors [2]", "value": "significantly enhancing the anti-tumor activity"}, {"measurement": "autoimmune diabetes", "setting": "E.G7 tumors [2]", "value": "protected the mice from diabetes"}]}]}
